Results as given in patent US20210220376A1, “ADDICTION TREATMENT OF AN ALCOHOL-CONSUMING PATIENT POPULATION” (Amygdala Neurosciences, Inc., priority 2018, published 2021).

System: healthy male alcohol drinkers
Test: Phase 1 single-ascending-dose study of compound (2) coadministered with ethanol: safety
Type: in vivo, human
Procedure: This was a single-center, randomized, double-blind, placebo-controlled, single-ascending-dose cohort study to evaluate the safety and tolerability of the coadministration of up to 6 dose levels of compound (2) (25 mg, 50 mg, 100 mg, 200 mg, 400 mg and 600 mg) and EtOH in healthy male alcohol drinkers.
Within 27 days of the medical screening visit, subjects were enrolled and attended an inpatient Qualification Phase in which they received up to 5 standard drinks (14 grams of EtOH each; oral solution of vodka containing 40% [v/v] EtOH, mixed with a non-carbonated beverage, one drink every 30 minutes) to evaluate their tolerance to repeat administration to ensure they could safely tolerate the planned EtOH treatment. A minimum washout interval of 44 hours was performed between initiation of the last EtOH administration in the Qualification Phase and study drug administration in the Treatment Phase.
Following qualification, eligible subjects were enrolled and randomized to receive compound (2) or placebo in a 3:1 fashion in each of 6 cohorts (8 subjects per cohort). As a safety precaution, no more than 4 subjects were administered study drug on any given day. Planned compound (2) dose levels included doses of 25 mg, 50 mg, 100 mg, 200 mg, 400 mg, and 600 mg. Study drug administration occurred approximately 1 hour following ingestion of a standardized (moderate-fat) meal. Approximately 2 hours after receiving the study drug, subjects began a session of repeat EtOH administration, during which they could receive up to 5 doses of EtOH (14 grams each, approximately 1 standard drink) every 30 minutes, or until a stopping criterion applied. Safety assessments, pharmacodynamic assessments and pharmacokinetic blood sample collections were obtained up to 48 hours post-dose. Subjects were discharged after 48-hour post-dose procedures were completed and the investigator deemed it safe to do so. Subjects returned for the safety follow-up visit approximately 7 (±2) days following discharge from the Treatment Phase or after early discontinuation from the study.
The primary endpoints included frequency and severity of adverse events (AEs), ethanol reaction (ER) scores and flushing, laboratory values, vital signs, and electrocardiograms (ECGs).
Subjects' ER scores and flushing were summarized descriptively by timepoint, category and treatment. In addition, flushing, ER heat sensation and ER palpitation were compared between each of the active doses and placebo using a mixed-effect model for repeated measures (MMRM) analysis with treatment, visit, and treatment by visit as fixed effects and baseline as a covariate. The actual value was used as the dependent variable and visit included pre-EtOH, 30 minutes, 60 minutes, 90 minutes, 120 minutes, 150 minutes and 3 hours relative to the first EtOH administration in Treatment Phase. The variance-covariance matrix was assumed to be unstructured. […] Results were presented as least square means (LSMEANS), treatment differences in LSMEANS, 95% confidence intervals (CI) and p-values.
Vital signs measurements (respiratory rate, systolic and diastolic blood pressure, and heart rate) were summarized by treatment and visit. Heart rate and diastolic blood pressure were also compared between each of the active doses and placebo using an MMRM analysis with treatment, visit, and treatment by visit as fixed effects and baseline as a covariate.
Twelve-lead ECG results were summarized by timepoint and treatment, and frequencies (numbers and percentages) were calculated for the overall evaluation. Concomitant medications, clinical laboratory evaluations (raw data and change from baseline, as applicable) and physical examination findings were listed.

[1] = 200 mg, 135 min after first EtOH
[2] = 400 mg, 15 min after first EtOH
[3] = 400 mg, 45 min after first EtOH
[4] = 400 mg, 75 min after first EtOH
[5] = 400 mg, 105 min after first EtOH
[6] = 400 mg, 135 min after first EtOH
[7] = 600 mg, 15 min after first EtOH
[8] = 600 mg, 45 min after first EtOH
[9] = 600 mg, 75 min after first EtOH
[10] = 600 mg, 105 min after first EtOH
[11] = 600 mg, 135 min after first EtOH
[12] = Overall (N = 36), 15 min after first EtOH
[13] = Overall (N = 36), 45 min after first EtOH
[14] = Overall (N = 36), 75 min after first EtOH
[15] = Overall (N = 36), 105 min after first EtOH
[16] = Overall (N = 36), 135 min after first EtOH

For `O=C(NCc1ccc(-c2ccn(COP(=O)(O)O)c(=O)c2)cc1)c1c(Cl)cccc1Cl` [Compound (2), phosphoric acid mono-(4-{4-[(2,6-dichloro-benzoylamino)-methyl]-phenyl}-2-oxo-2H-pyridin-1-ylmethyl) ester], which “Diastolic Blood Pressure, Mean” value [1] is on record?
Its value is 69.3 mmHg.

And the “Heart Rate, Mean” value [1]?
The value was 96.2 beats/min.

What about the “Systolic Blood Pressure, Mean” value [1] of the same molecule?
Its value is 124.0 mmHg.

And the “Diastolic Blood Pressure, Mean” value (200 mg, Pre-EtOH)?
Its value is 73.8 mmHg.

And the “Heart Rate, Mean” value (200 mg, Pre-EtOH)?
Its value is 60.2 beats/min.

What about the “Systolic Blood Pressure, Mean” value (200 mg, Pre-EtOH) of the same molecule?
The value was 119.8 mmHg.

And the “subjects with TEAE of sinus tachycardia” value (200 mg, after EtOH)?
Its value is “three”.

What about the “subjects with TEAE of tachycardia” value (200 mg, after EtOH) of the same molecule?
Its value is “one”.

What about the “subjects with TEAE of tachypnea” value (200 mg, after EtOH) of the same molecule?
The value was “One”.

And the “QTcF Interval, Aggregate, Mean” value (200 mg, prior to initiation of repeat EtOH administration session)?
Its value is 400.2 ms.

And the “subjects reporting a TEAE” value (400 mg)?
Its value is 100%.

What about the “Diastolic Blood Pressure, Mean” value [2] of the same molecule?
Its value is 71.3 mmHg.

What about the “Systolic Blood Pressure, Mean” value [2] of the same molecule?
The value was 112.8 mmHg.

What about the “Diastolic Blood Pressure, Mean” value [3] of the same molecule?
Its value is 71.8 mmHg.

What about the “Heart Rate, Mean” value [3] of the same molecule?
The value was 81.2 beats/min.

And the “Systolic Blood Pressure, Mean” value [3]?
Its value is 120.0 mmHg.

And the “QTcF Interval, Aggregate, Mean” value (400 mg, 1 hour after initiation of repeat EtOH administration session)?
Its value is 394.8 ms.

What about the “Diastolic Blood Pressure, Mean” value [4] of the same molecule?
Its value is 70.5 mmHg.

What about the “Heart Rate, Mean” value [4] of the same molecule?
Its value is 82.7 beats/min.

And the “Systolic Blood Pressure, Mean” value [4]?
The value was 119.3 mmHg.

And the “Diastolic Blood Pressure, Mean” value [5]?
Its value is 72.2 mmHg.

What about the “Heart Rate, Mean” value [5] of the same molecule?
Its value is 86.2 beats/min.

And the “Systolic Blood Pressure, Mean” value [5]?
Its value is 118.5 mmHg.

And the “Diastolic Blood Pressure, Mean” value [6]?
Its value is 71.0 mmHg.

And the “Heart Rate, Mean” value [6]?
The value was 83.7 beats/min.

And the “Systolic Blood Pressure, Mean” value [6]?
The value was 118.8 mmHg.

And the “Diastolic Blood Pressure, Mean” value (400 mg, Pre-EtOH)?
Its value is 71.7 mmHg.

And the “Heart Rate, Mean” value (400 mg, Pre-EtOH)?
The value was 61.2 beats/min.

And the “Systolic Blood Pressure, Mean” value (400 mg, Pre-EtOH)?
The value was 115.3 mmHg.

What about the “QTcF Interval, Aggregate, Mean” value (400 mg, prior to initiation of repeat EtOH administration session) of the same molecule?
The value was 396.7 ms.

What about the “subjects reporting a TEAE” value (600 mg) of the same molecule?
The value was 83.3%.

What about the “Diastolic Blood Pressure, Mean” value [7] of the same molecule?
The value was 75.0 mmHg.

What about the “Systolic Blood Pressure, Mean” value [7] of the same molecule?
Its value is 122.3 mmHg.

What about the “Diastolic Blood Pressure, Mean” value [8] of the same molecule?
The value was 75.0 mmHg.

What about the “Heart Rate, Mean” value [8] of the same molecule?
The value was 85.2 beats/min.

What about the “Systolic Blood Pressure, Mean” value [8] of the same molecule?
Its value is 127.3 mmHg.

And the “QTcF Interval, Aggregate, Mean” value (600 mg, 1 hour after initiation of repeat EtOH administration session)?
The value was 394.3 ms.

What about the “Diastolic Blood Pressure, Mean” value [9] of the same molecule?
The value was 74.2 mmHg.

What about the “Heart Rate, Mean” value [9] of the same molecule?
Its value is 91.8 beats/min.

And the “Systolic Blood Pressure, Mean” value [9]?
Its value is 130.2 mmHg.

What about the “Diastolic Blood Pressure, Mean” value [10] of the same molecule?
The value was 72.0 mmHg.

What about the “Heart Rate, Mean” value [10] of the same molecule?
The value was 91.8 beats/min.

And the “Systolic Blood Pressure, Mean” value [10]?
Its value is 126.8 mmHg.

And the “Diastolic Blood Pressure, Mean” value [11]?
Its value is 74.8 mmHg.

What about the “Heart Rate, Mean” value [11] of the same molecule?
Its value is 92.3 beats/min.

And the “Systolic Blood Pressure, Mean” value [11]?
Its value is 127.7 mmHg.

What about the “Diastolic Blood Pressure, Mean” value (600 mg, Pre-EtOH) of the same molecule?
The value was 75.2 mmHg.

And the “Heart Rate, Mean” value (600 mg, Pre-EtOH)?
The value was 61.2 beats/min.

What about the “Systolic Blood Pressure, Mean” value (600 mg, Pre-EtOH) of the same molecule?
Its value is 120.2 mmHg.

And the “QTcF Interval, Aggregate, Mean” value (600 mg, prior to initiation of repeat EtOH administration session)?
Its value is 393.8 ms.

And the “deaths or serious adverse events” value (25-600 mg oral with up to 5 doses of EtOH (14 g each))?
The value was “no deaths or serious adverse events”.

What about the “Diastolic Blood Pressure, Mean” value [12] of the same molecule?
Its value is 74.0 mmHg.

And the “Systolic Blood Pressure, Mean” value [12]?
The value was 118.8 mmHg.

What about the “Diastolic Blood Pressure, Mean” value [13] of the same molecule?
The value was 73.4 mmHg.

What about the “Heart Rate, Mean” value [13] of the same molecule?
Its value is 76.6 beats/min.

What about the “Systolic Blood Pressure, Mean” value [13] of the same molecule?
The value was 122.0 mmHg.

And the “QTcF Interval, Aggregate, Mean” value (Overall (N = 36), 1 hour after initiation of repeat EtOH administration session)?
The value was 401.1 ms.

What about the “Diastolic Blood Pressure, Mean” value [14] of the same molecule?
Its value is 72.5 mmHg.

What about the “Heart Rate, Mean” value [14] of the same molecule?
Its value is 82.9 beats/min.

What about the “Systolic Blood Pressure, Mean” value [14] of the same molecule?
The value was 122.3 mmHg.

What about the “Diastolic Blood Pressure, Mean” value [15] of the same molecule?
Its value is 71.3 mmHg.

And the “Heart Rate, Mean” value [15]?
The value was 85.3 beats/min.

And the “Systolic Blood Pressure, Mean” value [15]?
The value was 121.7 mmHg.

And the “Diastolic Blood Pressure, Mean” value [16]?
Its value is 72.8 mmHg.

And the “Heart Rate, Mean” value [16]?
Its value is 82.5 beats/min.

And the “Systolic Blood Pressure, Mean” value [16]?
Its value is 121.3 mmHg.

What about the “Diastolic Blood Pressure, Mean” value (Overall (N = 36), Pre-EtOH) of the same molecule?
Its value is 73.4 mmHg.

What about the “Heart Rate, Mean” value (Overall (N = 36), Pre-EtOH) of the same molecule?
The value was 59.3 beats/min.

And the “Systolic Blood Pressure, Mean” value (Overall (N = 36), Pre-EtOH)?
Its value is 117.3 mmHg.

What about the “QTcF Interval, Aggregate, Mean” value (Overall (N = 36), prior to initiation of repeat EtOH administration session) of the same molecule?
Its value is 399.4 ms.

What about the “changes in diastolic blood pressure compared with placebo” value (after EtOH administration) of the same molecule?
The value was “no significant changes”.

What about the “changes in systolic blood pressure compared with placebo” value (after EtOH administration) of the same molecule?
Its value is “no significant changes”.

What about the “subjects reporting a TEAE” value (all compound (2)-treated subjects) of the same molecule?
Its value is 88.9%.

What about the “incidence of flushing and feeling hot compared with placebo” value (all doses) of the same molecule?
The value was “higher”.

And the “compound (2)-treated subjects who did not consume all 5 EtOH administrations due to TEAEs” value (all doses, N = 36)?
The value was 5.6%.

What about the flushing (all other doses (50-600 mg)) of the same molecule?
Its flushing is “observed”.

What about the tolerability (all treatments) of the same molecule?
Its tolerability is “generally well tolerated”.

And the “ER subjective assessment compared with placebo” value (heat sensation, palpitations)?
Its value is “more likely to report feeling heat sensation and feeling palpitations”.
